# Measurements as given in US20200024278A1, “COMPOSITION COMPRISING ANTIBIOTIC COMPOUND AND AN HETEROCYCLIC COMPOUND AND THEIR USE IN PREVENTING OR TREATING BACTERIAL INFECTIONS” (MUTABILIS, priority 2016, published 2020).
# Columns and labels:
# Test in all cases: MIC, broth microdilution (CLSI), substance alone or ATB combined with compound at 4 or 8 μg/mL
# SPN 49619 = assay type: cell-based, S. pneumoniae; conditions: SPN 49619; for MIC ATB combined with compound: compound @4 μg/ml
# Summary of the method: (§1)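 Growth inhibition endpoint, read visually after 16-20 h at 35° C in ambient air. Cation-adjusted Mueller-Hinton broth, inoculum 5·10^5 CFU/mL, CLSI M7-A7 protocol.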
# ECO 190317 = assay type: cell-based, E. coli; conditions: ECO 190317; for MIC ATB combined with compound: compound @4 μg/ml
# Summary of the method: as §1
# ECO UFR39 = assay type: cell-based, E. coli; conditions: ECO UFR39; for MIC ATB combined with compound: compound @4 μg/ml
# Summary of the method: as §1
# KPN UFR42 = assay type: cell-based, K. pneumoniae; conditions: KPN UFR42; for MIC ATB combined with compound: compound @4 μg/ml
# Summary of the method: as §1
# KPN BAA-1898 = assay type: cell-based, K. pneumoniae; conditions: KPN BAA-1898; for MIC ATB combined with compound: compound @4 μg/ml
# Summary of the method: as §1
# KPN 6299 = assay type: cell-based, K. pneumoniae; conditions: compound @4 μg/ml
# Summary of the method: as §1
# ECL P99 = assay type: cell-based, E. cloacae; conditions: ECL P99; for MIC ATB combined with compound: compound @4 μg/ml
# Summary of the method: as §1
# SAU 29213 = assay type: cell-based, S. aureus; conditions: for MIC ATB combined with compound: compound @4 μg/ml, SAU 29213
# Summary of the method: as §1
# PAE 105250 = assay type: cell-based, P. aeruginosa; conditions: PAE 105250; for MIC ATB combined with compound: compound @4 μg/ml
# Summary of the method: as §1
# PAE UFR48 = assay type: cell-based, P. aeruginosa; conditions: PAE UFR48; for MIC ATB combined with compound: compound @4 μg/ml
# Summary of the method: as §1
# PAE UFR90 = assay type: cell-based, P. aeruginosa; conditions: PAE UFR90; for MIC ATB combined with compound: compound @4 μg/ml
# Summary of the method: as §1
compound,measurement,setting,value
"NC[C@@H]1CC(=NOCC(N)=O)[C@@H]2CN1C(=O)N2OS(=O)(=O)[O-].O=C(O)C(F)(F)F.[Na+] [Example 4, 2,2,2-trifluroacetate and sodium [(2S,5S)-4-(2-amino-2-oxo-ethoxy)imino-2-(azaniumylmethyl)-7-oxo-1,6-diazabicyclo[3.2.1]octan-6-yl] sulfate]",MIC ATB combined with compound,SPN 49619; ATB ATM,>32 µg/mL
same,MIC ATB combined with compound,SPN 49619; ATB FEP,0.063 µg/mL
same,MIC ATB combined with compound,SPN 49619; ATB FOS,32 µg/mL
same,MIC ATB combined with compound,SPN 49619; ATB MEM,0.063 µg/mL
same,MIC ATB combined with compound,SPN 49619; ATB PIP,0.5 µg/mL
same,MIC,SPN 49619; substance alone,32 µg/mL
same,MIC ATB combined with compound,ECO 190317; ATB ATM,<0.031 µg/mL
same,MIC ATB combined with compound,ECO 190317; ATB FEP,<0.031 µg/mL
same,MIC ATB combined with compound,ECO 190317; ATB FOS,<0.125 µg/mL
same,MIC ATB combined with compound,ECO 190317; ATB MEM,<0.031 µg/mL
same,MIC ATB combined with compound,ECO 190317; ATB PIP,<0.031 µg/mL
same,MIC,ECO 190317; substance alone,0.25 µg/mL
same,MIC ATB combined with compound,ECO UFR39; ATB ATM,<0.031 µg/mL
same,MIC ATB combined with compound,ECO UFR39; ATB FEP,<0.031 µg/mL
same,MIC ATB combined with compound,ECO UFR39; ATB FOS,<0.125 µg/mL
same,MIC ATB combined with compound,ECO UFR39; ATB MEM,<0.031 µg/mL
same,MIC ATB combined with compound,ECO UFR39; ATB PIP,0.063 µg/mL
same,MIC,ECO UFR39; substance alone,0.25 µg/mL
same,MIC ATB combined with compound,KPN UFR42; ATB ATM,1 µg/mL
same,MIC ATB combined with compound,KPN UFR42; ATB FEP,>32 µg/mL
same,MIC ATB combined with compound,KPN UFR42; ATB FOS,32 µg/mL
same,MIC ATB combined with compound,KPN UFR42; ATB MEM,>32 µg/mL
same,MIC ATB combined with compound,KPN UFR42; ATB PIP,>32 µg/mL
same,MIC,KPN UFR42; substance alone,>32 µg/mL
same,MIC ATB combined with compound,KPN BAA-1898; ATB ATM,8 µg/mL
same,MIC ATB combined with compound,KPN BAA-1898; ATB FEP,0.5 µg/mL
same,MIC ATB combined with compound,KPN BAA-1898; ATB FOS,32 µg/mL
same,MIC ATB combined with compound,KPN BAA-1898; ATB MEM,0.5 µg/mL
same,MIC ATB combined with compound,KPN BAA-1898; ATB PIP,>32 µg/mL
same,MIC,KPN BAA-1898; substance alone,>32 µg/mL
same,MIC ATB combined with compound,KPN 6299; ATB ATM,0.063 µg/mL
same,MIC ATB combined with compound,KPN 6299; ATB FEP,0.125 µg/mL
same,MIC ATB combined with compound,KPN 6299; ATB FOS,64 µg/mL
same,MIC ATB combined with compound,KPN 6299; ATB MEM,0.25 µg/mL
same,MIC ATB combined with compound,KPN 6299; ATB PIP,4 µg/mL
same,MIC ATB combined with compound,ECL P99; ATB ATM,<0.031 µg/mL
same,MIC ATB combined with compound,ECL P99; ATB FEP,<0.031 µg/mL
same,MIC ATB combined with compound,ECL P99; ATB FOS,<0.125 µg/mL
same,MIC ATB combined with compound,ECL P99; ATB MEM,<0.031 µg/mL
same,MIC ATB combined with compound,ECL P99; ATB PIP,<=0.031 μg/mL
same,MIC,ECL P99; substance alone,0.063 µg/mL
same,MIC ATB combined with compound,SAU 29213; ATB ATM,>32 µg/mL
same,MIC ATB combined with compound,SAU 29213; ATB FEP,4 µg/mL
same,MIC ATB combined with compound,SAU 29213; ATB FOS,2 µg/mL
same,MIC ATB combined with compound,SAU 29213; ATB MEM,0.125 µg/mL
same,MIC ATB combined with compound,SAU 29213; ATB PIP,4 µg/mL
same,MIC,"SAU 29213; substance alone, SAU 29213 (MSSA 29213)",>32 µg/mL
same,MIC ATB combined with compound,PAE 105250; ATB ATM,<0.031 µg/mL
same,MIC ATB combined with compound,PAE 105250; ATB FEP,<=0.031 μg/mL
same,MIC ATB combined with compound,PAE 105250; ATB FOS,8 µg/mL
same,MIC ATB combined with compound,PAE 105250; ATB MEM,<0.031 µg/mL
same,MIC ATB combined with compound,PAE 105250; ATB PIP,<=0.031 μg/mL
same,MIC,PAE 105250; substance alone,32 µg/mL
same,MIC ATB combined with compound,PAE UFR48; ATB ATM,<0.031 µg/mL
same,MIC ATB combined with compound,PAE UFR48; ATB FEP,<0.031 µg/mL
same,MIC ATB combined with compound,PAE UFR48; ATB FOS,<0.125 µg/mL
same,MIC ATB combined with compound,PAE UFR48; ATB MEM,<0.031 µg/mL
same,MIC ATB combined with compound,PAE UFR48; ATB PIP,<0.031 µg/mL
same,MIC,PAE UFR48; substance alone,4 µg/mL
same,MIC ATB combined with compound,PAE UFR90; ATB ATM,<0.031 µg/mL
same,MIC ATB combined with compound,PAE UFR90; ATB FEP,<0.031 µg/mL
same,MIC ATB combined with compound,PAE UFR90; ATB FOS,<0.125 µg/mL
same,MIC ATB combined with compound,PAE UFR90; ATB MEM,<0.031 µg/mL
same,MIC ATB combined with compound,PAE UFR90; ATB PIP,<0.031 µg/mL
same,MIC,PAE UFR90; substance alone,2 µg/mL
